# Test results: paper PMC8344263, “Tetrahydroquinazole-based secondary sulphonamides as carbonic anhydrase inhibitors: synthesis, biological evaluation against isoforms I, II, IV, and IX, and computational studies” (Journal of Enzyme Inhibition and Medicinal Chemistry, 2021)
# Several values for one entry are separate records, joined by “and”; a condition that tells them apart may be missing. Equal entries are not always repeated.
# Experiments:
# hCA IX = hCA IX (Homo sapiens, UniProt Q16790); assay: stopped-flow CO2 hydrase assay, hCA IX; settings: mean from three assays, errors ±5–10%
# Description: (§1) An Applied Photophysics stopped-flow instrument was used for assaying the CA catalysed CO2 hydration activity[28]. […] The uncatalysed rates were determined in the same manner and subtracted from the total observed rates. Stock solutions of inhibitors (10 mM) were prepared in distilled-deionised water with 10% of DMSO and dilutions up to 0.01 µM were done thereafter with the assay buffer. The inhibitor and enzyme solutions were preincubated together for 15 min (standard assay at room temperature) prior to assay, to allow for the formation of the E-I complex. The inhibition constants were obtained by non-linear least-squares methods using PRISM 3 and the Cheng–Prusoff equation and represent the mean from at least three different determinations.
# hCA IV = hCA IV (Homo sapiens, UniProt P22748); assay: stopped-flow CO2 hydrase assay, hCA IV; settings: for Ki ratio CA IV/CA IX: selectivity for hCA IX over hCA IV
# Chain of hCA IV (P22748 19-312): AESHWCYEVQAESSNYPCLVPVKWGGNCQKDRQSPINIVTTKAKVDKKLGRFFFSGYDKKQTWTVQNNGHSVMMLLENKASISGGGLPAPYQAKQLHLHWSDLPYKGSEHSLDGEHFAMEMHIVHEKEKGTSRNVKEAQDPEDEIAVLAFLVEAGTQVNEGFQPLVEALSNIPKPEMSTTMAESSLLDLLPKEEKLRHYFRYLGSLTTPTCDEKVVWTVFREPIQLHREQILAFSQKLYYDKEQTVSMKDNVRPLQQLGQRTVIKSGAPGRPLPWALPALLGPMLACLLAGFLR
# Description: as §1
# hCA II = hCA II (Homo sapiens, UniProt P00918); assay: stopped-flow CO2 hydrase assay, hCA II; settings: for Ki ratio CA II/CA IX: selectivity for hCA IX over hCA II
# Description: as §1
# hCA I = hCA I (Homo sapiens, UniProt P00915); assay: stopped-flow CO2 hydrase assay, hCA I; settings: for Ki ratio CA I/CA IX: selectivity for hCA IX over hCA I
# Chain of hCA I (P00915 whole entry): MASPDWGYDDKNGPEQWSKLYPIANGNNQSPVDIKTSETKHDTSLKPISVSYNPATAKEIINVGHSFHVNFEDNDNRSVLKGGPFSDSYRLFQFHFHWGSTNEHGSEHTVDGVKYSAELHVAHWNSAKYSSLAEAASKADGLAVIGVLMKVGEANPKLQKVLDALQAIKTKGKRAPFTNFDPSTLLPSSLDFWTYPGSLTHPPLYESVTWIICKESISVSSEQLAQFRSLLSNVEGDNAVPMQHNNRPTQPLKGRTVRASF
# Description: as §1
melting point,Ki (hCA IX),Ki (hCA IV),Ki (hCA II),Ki (hCA I),Ki ratio CA IV/CA IX (hCA IV),Ki ratio CA II/CA IX (hCA II),Ki ratio CA I/CA IX (hCA I),SMILES
214 to 215 °C,,,,,,,,"NS(=O)(=O)c1ccc(Nc2ncc3c(n2)CC(c2ccccc2)CC3=O)cc1 (centres unmarked) [Compound 16b, 4-((5-oxo-7-phenyl-5,6,7,8-tetrahydroquinazolin-2-yl)amino)benzenesulfonamide]"
264 to 266 °C,> 100 µM,> 100 µM,6.9 µM,62 µM,,,,"CC1(C)CC(=O)c2cnc(Nc3ccc(S(=O)(=O)Nc4ccc([N+](=O)[O-])cc4)cc3)nc2C1 [Compound 11, 4-((7,7-Dimethyl-5-oxo-5,6,7,8-tetrahydroquinazolin-2-yl)amino)-N-(4-nitrophenyl)benzenesulfonamide]"
215 to 217 °C,47.3 µM,91.1 µM,7.4 µM,70.5 µM,,,,"CC1(C)CC(=O)c2cnc(Nc3ccc(S(=O)(=O)Nc4ccccc4)cc3)nc2C1 [Compound 9, 4-((7,7-Dimethyl-5-oxo-5,6,7,8-tetrahydroquinazolin-2-yl)amino)-N-phenylbenzenesulfonamide]"
294 to 296 °C,,,,,,,,"NS(=O)(=O)c1ccc(Nc2ncc3c(n2)CCCC3=O)cc1 [Compound 16a, 4-((5-oxo-5,6,7,8-tetrahydroquinazolin-2-yl)amino)benzenesulfonamide]"
246 to 248 °C,19.3 µM,62.1 µM,22.4 µM,84.9 µM,,,,"Cc1ccc(NS(=O)(=O)c2ccc(Nc3ncc4c(n3)CC(C)(C)CC4=O)cc2)cc1 [Compound 12, 4-((7,7-Dimethyl-5-oxo-5,6,7,8-tetrahydroquinazolin-2-yl)amino)-N-(p-tolyl)benzenesulfonamide]"
258 to 260 °C,,,,,,,,"CC1(C)CC(=O)c2cnc(Nc3ccc(S(N)(=O)=O)cc3)nc2C1 [Compound 16c, 4-((5-oxo-7,7-dimethyl-5,6,7,8-tetrahydroquinazolin-2-yl)amino)benzenesulfonamide]"
210 to 212 °C,48.1 µM,78.1 µM,5.1 µM,24.7 µM,,,,"COc1ccc(NS(=O)(=O)c2ccc(Nc3ncc4c(n3)CC(C)(C)CC4=O)cc2)cc1 [Compound 10, 4-((7,7-Dimethyl-5-oxo-5,6,7,8-tetrahydroquinazolin-2-yl)amino)-N-(4-methoxyphenyl)benzenesulfonamide]"

# Continued, compound first:
SMILES,melting point,Ki (hCA IX),Ki (hCA IV),Ki (hCA II),Ki (hCA I),Ki ratio CA IV/CA IX (hCA IV),Ki ratio CA II/CA IX (hCA II),Ki ratio CA I/CA IX (hCA I)
"COc1ccc(NS(=O)(=O)c2ccc(Nc3ncc4c(n3)CCCC4=O)cc2)cc1 [Compound 2, N-(4-methoxyphenyl)-4-((5-oxo-5,6,7,8-tetrahydroquinazolin-2-yl)amino)benzenesulfonamide]",233 to 235 °C,0.46 µM,> 100 µM,50.3 µM,> 100 µM,,,
"O=C1CCCc2nc(Nc3ccc(S(=O)(=O)Nc4ccccc4)cc3)ncc21 [Compound 1, 4-((5-Oxo-5,6,7,8-tetrahydroquinazolin-2-yl)amino)-N-phenylbenzenesulfonamide]",281 to 283 °C,0.48 µM,> 100 µM,41.2 µM,89.1 µM,,,
"O=C1CC(c2ccccc2)Cc2nc(Nc3ccc(S(=O)(=O)Nc4ccc([N+](=O)[O-])cc4)cc3)ncc21 (centres unmarked) [Compound 7, N-(4-nitrophenyl)-4-((5-oxo-7-phenyl-5,6,7,8-tetrahydroquinazolin-2-yl)amino)benzenesulfonamide]",118 to 120 °C,1.33 µM,> 100 µM,67.5 µM,> 100 µM,> 75.2,50.7,> 75.2
"O=C1CC(c2ccccc2)Cc2nc(Nc3ccc(S(=O)(=O)Nc4ccccc4)cc3)ncc21 (centres unmarked) [Compound 5, 4-((5-Oxo-7-phenyl-5,6,7,8-tetrahydroquinazolin-2-yl)amino)-N-phenylbenzenesulfonamide]",111 to 113 °C,0.45 µM,> 100 µM,> 100 µM,> 100 µM,> 222,,> 222
"Cc1ccc(NS(=O)(=O)c2ccc(Nc3ncc4c(n3)CCCC4=O)cc2)cc1 [Compound 4, 4-((5-Oxo-5,6,7,8-tetrahydroquinazolin-2-yl)amino)-N-(4-tolyl)benzenesulfonamide]",272 to 274 °C,1.04 µM,> 100 µM,> 100 µM,> 100 µM,> 96 and >100 [CA IV/CA IX]^b>96,> 96 and >100 [CA II/CA IX]^b>96,> 96 and >100 [CA I/CA IX]^b>96
"Cc1ccc(NS(=O)(=O)c2ccc(Nc3ncc4c(n3)CC(c3ccccc3)CC4=O)cc2)cc1 (centres unmarked) [Compound 8, 4-((5-Oxo-7-phenyl-5,6,7,8-tetrahydroquinazolin-2-yl)amino)-N-(4-tolyl)benzenesulfonamide]",83 to 85 °C,15.7 µM,> 100 µM,13 µM,46.1 µM,,,
"COc1ccc(NS(=O)(=O)c2ccc(Nc3ncc4c(n3)CC(c3ccccc3)CC4=O)cc2)cc1 (centres unmarked) [Compound 6, N-(4-methoxyphenyl)-4-((5-oxo-7-phenyl-5,6,7,8-tetrahydroquinazolin-2-yl)amino)benzenesulfonamide]",103 to 105 °C,1.73 µM,> 100 µM,11.5 µM,34 µM,> 57.8,6.6,19.6
"O=C1CCCc2nc(Nc3ccc(S(=O)(=O)Nc4ccc([N+](=O)[O-])cc4)cc3)ncc21 [Compound 3, N-(4-nitrophenyl)-4-((5-oxo-5,6,7,8-tetrahydroquinazolin-2-yl)amino)benzenesulfonamide]",264 to 266 °C,0.42 µM,> 100 µM,> 100 µM,> 100 µM,,,
